Where two headings read alike, the source gives them in different places.
What was measured:
human FAAH = target: T1, human FAAH (Homo sapiens, UniProt O00519); test: FAAH activity in membrane homogenates of H4-FAAH cells, [3H]-anandamide hydrolysis; type: biochemical
T1 construct: expressed in transfected cells; host or cells: H4 cells (H4-FAAH, Geneticin-selected); crude membrane homogenates
T1 sequence (O00519 1-579): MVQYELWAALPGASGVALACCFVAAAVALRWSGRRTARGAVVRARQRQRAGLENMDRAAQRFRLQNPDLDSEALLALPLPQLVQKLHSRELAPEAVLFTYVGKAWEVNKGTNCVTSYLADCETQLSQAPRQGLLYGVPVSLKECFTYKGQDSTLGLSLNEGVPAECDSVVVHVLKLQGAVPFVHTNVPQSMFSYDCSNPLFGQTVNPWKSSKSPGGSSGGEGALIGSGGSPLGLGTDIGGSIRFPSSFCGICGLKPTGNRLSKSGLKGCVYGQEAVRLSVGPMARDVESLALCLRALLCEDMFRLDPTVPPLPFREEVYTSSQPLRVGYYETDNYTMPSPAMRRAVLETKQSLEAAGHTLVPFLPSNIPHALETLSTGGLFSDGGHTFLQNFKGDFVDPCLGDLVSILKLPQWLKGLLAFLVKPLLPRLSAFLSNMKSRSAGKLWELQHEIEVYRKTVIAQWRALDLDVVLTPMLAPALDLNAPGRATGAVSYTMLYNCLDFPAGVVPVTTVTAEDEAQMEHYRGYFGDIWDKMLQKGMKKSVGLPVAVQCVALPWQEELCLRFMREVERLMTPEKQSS
Method in brief: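 Membranes (240 ng protein) from H4 cells expressing transfected human FAAH, incubated 1 h at room temperature in 125 mM Tris-Cl, pH 9.0, with 1.67 nM [3H]-anandamide plus 10 μM anandamide. Aqueous [3H]-ethanolamine counted after methanol/dichloroethane extraction; background set with 10 μM ATFMK. IC50 from four-parameter logistic fit.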

[1] = H4-FAAH cell membranes, 10 μM anandamide, room temperature, one hour, read-out: IC50

Q: What does the source list for `O=C(Nc1ccccc1Oc1ccccc1)O/N=C/c1ccc(F)cc1` [Example 89, 4-Fluorobenzaldehyde, O-[[(2-phenoxyphenyl)amino]carbonyl]oxime]?
A: IC50 (human FAAH; [1]): > 0.5 µM; melting point: 141.5 to 142 °C

Q: With `O=C(Nc1ccccc1Oc1ccccc1)O/N=C/c1ccccc1` [Example 90, Benzaldehyde, O-[[(2-phenoxyphenyl)amino]carbonyl]oxime] as the compound, how does the IC50 (human FAAH; [1]) read?
A: The IC50 was 0.01 to 0.1 µM.

Q: What about the melting point of the same compound?
A: Its melting point is 141.5 to 142 °C.

Q: With `CCCCOc1ccc(C(CC)NC(=O)Oc2ccc3ncccc3c2)cc1` (centres unmarked) [Example 125, [1-(4-Butoxy-phenyl)-propyl]-carbamic acid quinolin-6-yl ester] as the compound, how does the IC50 (human FAAH; [1]) read?
A: Its IC50 is 0.01 to 0.1 µM.

Q: What about the melting point of the same compound?
A: Its melting point is 115 to 118 °C.

Q: For `O=C(Nc1cccc(Oc2ccccc2)c1)O/N=C/c1ccc(F)cc1` [Example 88, 4-Fluorobenzaldehyde, O-[[(3-phenoxyphenyl)amino]carbonyl]oxime], which IC50 (human FAAH; [1]) is on record?
A: The IC50 was less than 0.01 µM.

Q: Which IC50 (human FAAH; [1]) does the source give for `CCCCCOc1ccc(NC(=O)O/N=C/c2cccnc2)cc1` [Example 17, 3-Pyridinecarboxaldehyde, O-[[(4-pentyloxyphenyl)amino]carbonyl]oxime] here?
A: Its IC50 is less than 0.01 µM.

Q: With `CCCCCCCCCOc1ccc(NC(=O)O/N=C/c2ccccc2)cc1` [Example 47, Benzaldehyde, O-[[(4-nonyloxyphenyl)amino]carbonyl]oxime] as the compound, how does the IC50 (human FAAH; [1]) read?
A: The IC50 was less than 0.01 µM.

Q: With `CCCCCCCCOc1ccc(NC(=O)O/N=C/c2cccnc2)cc1` [Example 30, 3-Pyridinecarboxaldehyde, O-[[(4-octyloxyphenyl)amino]carbonyl]oxime] as the compound, how does the IC50 (human FAAH; [1]) read?
A: The IC50 was less than 0.01 µM.

Q: Which IC50 (human FAAH; [1]) does the source give for `CCCCOc1ccc(C(CC)NC(=O)Oc2ccc(F)cc2)cc1` (centres unmarked) [Example 132, [1-(4-Butoxy-phenyl)-propyl]-carbamic acid 4-fluoro-phenyl ester] here?
A: Its IC50 is 0.01 to 0.1 µM.

Q: For `CCCCCCCCCCCOc1ccc(NC(=O)O/N=C/c2cccnc2)cc1` [Example 3, 3-Pyridinecarboxaldehyde, O-[[[4-(undecyloxy)phenyl]amino]carbonyl]oxime], which IC50 (human FAAH; [1]) is on record?
A: The IC50 was less than 0.01 µM.

Q: With `O=C(Nc1c[nH]c2ccccc12)O/N=C/c1ccccc1` [Example 145, Benzaldehyde, O-[[(1H-indol-3-yl)amino]carbonyl]oxime] as the compound, how does the IC50 (human FAAH; [1]) read?
A: Its IC50 is greater than 0.5 µM.

Q: With `CCCCCCCOc1ccc(NC(=O)O/N=C/c2ccccc2)cc1` [Example 27, Benzaldehyde, O-[[(4-heptyloxyphenyl)amino]carbonyl]oxime] as the compound, how does the IC50 (human FAAH; [1]) read?
A: Its IC50 is less than 0.01 µM.

Q: For `CCCCCCCCCCCCOc1ccc(NC(=O)ON=C(C)C)cc1` [Example 40, 2-Propanone, O-[[(4-dodecyloxyphenyl)amino]carbonyl]oxime], which IC50 (human FAAH; [1]) is on record?
A: Its IC50 is less than 0.01 µM.

Q: Which IC50 (human FAAH; [1]) does the source give for `CCCCCCCCCOc1ccc(NC(=O)O/N=C/c2cc(F)c(F)cc2F)cc1` [Example 56, 2,4,5-Trifluorobenzaldehyde, O-[[(4-nonyloxyphenyl)amino]carbonyl]oxime] here?
A: Its IC50 is less than 0.01 µM.

Q: Which IC50 (human FAAH; [1]) does the source give for `CCCCOc1ccc(NC(=O)O/N=C(/C)Cl)cc1` [Example 155, (1Z)-N-[[[(4-butoxyphenyl)amino]carbonyl]oxy]ethanimidoyl chloride] here?
A: Its IC50 is less than 0.01 µM.

Q: For `CCCCOc1ccc(CNC(=O)O/N=C/c2cccnc2)cc1` [Example 64, 3-Pyridinecarboxaldehyde, O-[[(4-butoxyphenylmethyl)amino]carbonyl]oxime], which IC50 (human FAAH; [1]) is on record?
A: The IC50 was 0.01 to 0.1 µM.

Q: With `CCCCCCCCOc1ccc(NC(=O)Oc2ccccc2F)cc1` [Example 99, 4-Octyloxyphenylcarbamic acid, 2-fluorophenyl ester] as the compound, how does the IC50 (human FAAH; [1]) read?
A: Its IC50 is 0.01 to 0.1 µM.

Q: Which IC50 (human FAAH; [1]) does the source give for `CCCCCCOc1ccc(NC(=O)O/N=C/c2cccnc2)cc1` [Example 25, 3-Pyridinecarboxaldehyde, O-[[(4-hexyloxyphenyl)amino]carbonyl]oxime] here?
A: Its IC50 is less than 0.01 µM.

Q: With `O=C(Nc1ccc(-c2ccccc2)cc1)O/N=C/c1ccccc1` [Example 72, Benzaldehyde, O-[[([1,1′-biphenyl]-4-yl)amino]carbonyl]oxime] as the compound, how does the IC50 (human FAAH; [1]) read?
A: The IC50 was 0.01 to 0.1 µM.

Q: With `CCCCCCCOc1ccc(NC(=O)ON=C(C)C)cc1` [Example 26, 2-Propanone, O-[[(4-heptyloxyphenyl)amino]carbonyl]oxime] as the compound, how does the IC50 (human FAAH; [1]) read?
A: The IC50 was less than 0.01 µM.

Q: Which IC50 (human FAAH; [1]) does the source give for `CCCCOc1ccc(CNC(=O)O/N=C/c2ccc(F)cc2)cc1` [Example 63, 4-Fluorobenzaldehyde, O-[[(4-butoxyphenylmethyl)amino]carbonyl]oxime] here?
A: Its IC50 is 0.01 to 0.1 µM.

Q: For `CCCCCCCCC(=O)Nc1ccc(NC(=O)O/N=C/c2cccc(C(F)(F)F)c2)cc1` [Example 138, 3-Trifluoromethylbenzaldehyde, O-[[(4-Nonanoylamino-phenyl)amino]carbonyl]oxime], which IC50 (human FAAH; [1]) is on record?
A: The IC50 was 0.01 to 0.1 µM.

Q: Which IC50 (human FAAH) does the source give for `CCc1ccc(-c2ccc(NC(=O)Oc3ccccc3F)cc2)cc1` [Example 124, 4′-Ethyl-[1,1′-biphenyl]-4-ylcarbamic acid, 2-fluorophenyl ester] here?
A: Its IC50 is greater than 0.5 µM.

Q: With `CCc1ccc(-c2ccc(NC(=O)O/N=C/c3cccnc3)cc2)cc1` [Example 70, 3-Pyridinecarboxaldehyde, O-[[(4′-ethyl-[1,1′-biphenyl]-4-yl)amino]carbonyl]oxime] as the compound, how does the IC50 (human FAAH; [1]) read?
A: The IC50 was 0.01 to 0.1 µM.

Q: Which IC50 (human FAAH; [1]) does the source give for `CCCCOc1ccc(CNC(=O)Oc2cccc3ccccc23)cc1` [Example 115, 4-(Butoxyphenylmethyl)carbamic acid, 1-naphthalenyl ester] here?
A: The IC50 was 0.01 to 0.1 µM.

Q: With `CCCCCCCOc1ccc(NC(=O)Oc2ccccc2)cc1` [Example 96, 4-Heptyloxyphenylcarbamic acid, phenyl ester] as the compound, how does the IC50 (human FAAH; [1]) read?
A: Its IC50 is less than 0.01 µM.

Q: For `CCCCCCCCCCOc1ccc(NC(=O)O/N=C/c2ccc(F)cc2)cc1` [Example 34, 4-Fluorobenzaldehyde, O-[[(4-decyloxyphenyl)amino]carbonyl]oxime], which IC50 (human FAAH; [1]) is on record?
A: The IC50 was less than 0.01 µM.

Q: With `O=C(Nc1ccc2[nH]ccc2c1)O/N=C/c1ccc(F)cc1` [Example 142, 4-Fluorobenzaldehyde, O-[[(1H-indol-5-yl)amino]carbonyl]oxime] as the compound, how does the IC50 (human FAAH; [1]) read?
A: The IC50 was greater than 0.5 µM.

Q: With `O=C(Nc1ccc(Oc2ccccc2)cc1)O/N=C/c1ccccc1` [Example 76, Benzaldehyde, O-[[(4-phenoxyphenyl)amino]carbonyl]oxime] as the compound, how does the IC50 (human FAAH; [1]) read?
A: The IC50 was less than 0.01 µM.

Q: For `CCCCOc1ccc(C(CC)NC(=O)Oc2ccc(OC)cc2)cc1` (centres unmarked) [Example 126, [1-(4-Butoxy-phenyl)-propyl]-carbamic acid 4-methoxy-phenyl ester], which IC50 (human FAAH; [1]) is on record?
A: Its IC50 is 0.01 to 0.1 µM.

Q: For `CCCCCCCCCOc1ccc(NC(=O)O/N=C/c2cccnc2)cc1` [Example 4, 3-Pyridinecarboxaldehyde, O-[[[4-(nonyloxy)phenyl]amino]carbonyl]oxime], which IC50 (human FAAH) is on record?
A: The IC50 was less than 0.01 µM.

Q: With `CCCCOc1ccc(CNC(=O)Oc2ccc(F)cc2)cc1` [Example 121, 4-(Butoxyphenylmethyl)carbamic acid, 4-fluorophenyl ester] as the compound, how does the IC50 (human FAAH; [1]) read?
A: Its IC50 is less than 0.01 µM.

Q: For `O=C(Nc1ccccc1Oc1ccccc1)O/N=C/c1cccnc1` [Example 92, 3-Pyridinecarboxaldehyde, O-[[(2-phenoxyphenyl)amino]carbonyl]oxime], which IC50 (human FAAH; [1]) is on record?
A: Its IC50 is greater than 0.5 µM.

Q: With `O=C(Nc1ccc2oc3ccccc3c2c1)O/N=C/c1ccccc1` [Example 154, Benzaldehyde, O-[[(2-dibenzofuranyl)amino]carbonyl]oxime] as the compound, how does the IC50 (human FAAH; [1]) read?
A: Its IC50 is 0.01 to 0.1 µM.

Q: With `O=C(Nc1ccc(OCc2ccccc2)cc1)O/N=C/c1ccc(F)cc1` [Example 81, 4-Fluorobenzaldehyde, O-[[[4-(phenylmethoxy)phenyl]amino]carbonyl]oxime] as the compound, how does the IC50 (human FAAH; [1]) read?
A: The IC50 was less than 0.01 µM.

Q: With `CCCCOc1ccc(CNC(=O)Oc2cccnc2)cc1` [Example 2, (4-Butoxyphenyl)methylcarbamic acid, 3-pyridinyl ester] as the compound, how does the IC50 (human FAAH; [1]) read?
A: Its IC50 is less than 0.01 µM.

Source: patent US6949574B2 (Bristol-Myers Squibb Company, priority 2002, dated 2005)
